This note sets out measurements from article PMC7924852, “The Emericellipsins A–E from an Alkalophilic Fungus Emericellopsis alkalina Show Potent Activity against Multidrug-Resistant Pathogenic Fungi” (Journal of Fungi, 2021).

Molecules are shown by their SMILES. ≈ marks a conversion by molar mass, not a printed value.

Test [1] deals with HPF (human postnatal fibroblasts, normal cell line). Description: MTT cytotoxicity assay. It counts as cell-based. The note with it: Homo sapiens, Fibroblast; HPF normal fibroblasts; MTT, 72 h; three experiments, each in triplicate. On the procedure:
(§1) Experiments for determining the cytotoxic activity of the compound in MTT assays were performed as previously described. The following tumor cell lines were used for this study: HCT-116 (colon cancer cell line), B16 (mouse melanoma cell line), K-562 (leukemia cell line), MDA-MB-231 (breast cancer line), and MCF-7 (breast cancer cell). Human postnatal fibroblasts were used as a normal cell line, and doxorubicin was used as a positive control. The cell lines were cultured in Dulbecco modified Eagle’s medium supplemented with 5% fetal calf serum, 2 mM Lglutamine, 100 U/mL penicillin, and […] streptomycin at 37 °C, 5% CO2 in a humidified atmosphere. Experiments were carried out on cells in the logarithmic phase of growth. The peptide was dissolved in DMSO as a 10 mM stock solution, followed by serial dilutions in water immediately before the experiment. Briefly, cells (5 × 10^3 in […] of culture medium) were plated in a 96-well plate and treated with 0.1% DMSO (blank control) or with […] of the peptide (0.10‒50 μM; each concentration in duplicate) for 72 h. After incubation with peptide, […] of aqueous MTT solution (3-(4,5-dimethylthiazol-2-yl)-2,5-diphenyltetrazolium bromide, 5 mg/mL) were added into each well for 2‒3 h. Formazan was dissolved in DMSO, and the absorbance at 570 nm was measured. The cytotoxicity at a given EmiA concentration was calculated as the percentage of absorbance in wells with peptide-treated cells compared to that of blank control cells (100%). The IC50 (50% growth inhibitory concentration) was defined as the concentration of EmiA that inhibited MTT conversion by 50%. All the experiments were repeated three times, each time in triplicate. EmiA was tested at a range of concentrations, 0.1‒10 μM.
For orientation: Tetrazolium dyes change colour on reduction, which living cells bring about.

Test [2] deals with HCT-116 (colon cancer cell line). Description: MTT cytotoxicity assay. The format is cell-based. The following applies: Homo sapiens, 72 h, three experiments, each in triplicate. On the procedure: as §1
The test system of test [3] is B16 (mouse melanoma cell line). Description: MTT cytotoxicity assay. The format is cell-based. The note with it: Mus musculus, 72 h, three experiments, each in triplicate. The procedure:
as §1

The subject of test [4] is C. krusei 1447. Description: Sensititre YeastOne antifungal susceptibility test. It counts as cell-based. The note with it: Sensititre YeastOne; C. krusei 1447.
In test [5] the test system is Aspergillus niger 1133m. Description: Sensititre YeastOne antifungal susceptibility test. The format is cell-based. The following applies: Aspergillus niger, 1133M.
Test [6] deals with C. glabrata 1402. Description: Broth microdilution MIC and MFC (CLSI). It counts as cell-based. The note with it: Nakaseomyces glabratus, 1402, 24 h, pH 7.
Test [7] relates to C. parapsilosis 571. Description: Broth microdilution MIC and MFC (CLSI). The note with it: Lodderomyces parapsilosis, 571, 24 h, pH 7. The format is cell-based. (Broth dilution looks for growth in wells or tubes with falling amounts of substance.)
The test system of test [8] is C. krusei 1447. Description: Broth microdilution MIC and MFC (CLSI). It counts as cell-based. The following applies: C. krusei 1447; symbol R defined in Table S1.
Test [9] concerns clinical yeast isolates (Candida, Cryptococcus). Description: Broth microdilution MIC/MFC, pathogenic multidrug yeast strains. The format is cell-based. The following applies: whole panel of Candida isolates.
Test [10] concerns Cryptococcus neoformans 297. Description: Sensititre YeastOne antifungal susceptibility test. It counts as cell-based. The following applies: Sensititre YeastOne; Cryptococcus neoformans 297 clinical isolate; read-out: MIC.
The subject of test [11] is C. laurentii 325m. Description: Broth microdilution MIC and MFC (CLSI). It counts as cell-based, Cr. laurentii. The following applies: Papiliotrema laurentii; C. laurentii 325m clinical isolate; RPMI 1640 pH 7.0, 35 °C, 24 h; read-out: MIC.
The test system of test [12] is C. tropicalis 156. Description: Broth microdilution MIC and MFC (CLSI). The format is cell-based. The note with it: Candida tropicalis; C. tropicalis 156 clinical isolate; RPMI 1640 pH 7.0, 35 °C, 24 h; read-out: MIC.
In test [13] the test system is Candida albicans 1402. Description: Broth microdilution MIC and MFC (CLSI). It counts as cell-based. The following applies: Candida albicans 1402 clinical isolate; RPMI 1640 pH 7.0, 35 °C, 24 h; read-out: MIC.
In test [14] the test system is Candida albicans 1402. Description: Sensititre YeastOne antifungal susceptibility test. The format is cell-based. The following applies: Candida albicans, 1402.
For test [15], the system named is C. tropicalis 156. Description: Sensititre YeastOne antifungal susceptibility test. The format is cell-based. The following applies: Candida tropicalis; Sensititre YeastOne; C. tropicalis 156 clinical isolate; read-out: MIC.
Test [16] has as its system Cr. laurentii 325m. Description: Sensititre YeastOne antifungal susceptibility test. The format is cell-based. The following applies: Papiliotrema laurentii; Sensititre YeastOne; Cr. laurentii 325m clinical isolate; read-out: MIC.
Test [17] deals with Cryptococcus neoformans 297. Description: Broth microdilution MIC and MFC (CLSI). The format is cell-based. The following applies: Cryptococcus neoformans 297 clinical isolate; RPMI 1640 pH 7.0, 35 °C, 24 h; read-out: MIC.
Test [18] concerns C. parapsilosis 571. Description: Sensititre YeastOne antifungal susceptibility test. It counts as cell-based. The note with it: Lodderomyces parapsilosis, 571.
Test [19] relates to C. glabrata 1402. Description: Sensititre YeastOne antifungal susceptibility test. The following applies: Nakaseomyces glabratus, 1402. The format is cell-based.
In test [20] the test system is A. fumigatus 390m. Description: Sensititre YeastOne antifungal susceptibility test. The format is cell-based. The note with it: Aspergillus fumigatus, 390M.
The test system of test [21] is A. terreus 497. Description: Sensititre YeastOne antifungal susceptibility test. The format is cell-based. The note with it: Aspergillus terreus, 497.

One may read the IC50 as the midpoint of a concentration-inhibition curve. A word on the MIC: it is the least concentration at which growth counts as inhibited.

Take `COc1cccc2c1C(=O)c1c(O)c3c(c(O)c1C2=O)C[C@@](O)(C(=O)CO)C[C@@H]3O[C@H]1C[C@H](N)[C@H](O)[C@H](C)O1` [Doxorubicin]: the IC50 in test [1] came out at 200 ± 30 nM; in test [2], 200 ± 30 nM; in test [3] it was 600 ± 70 nM.
As for `OC(Cn1cncn1)(Cn1cncn1)c1ccc(F)cc1F` [FZ, Fluconazole], the “MIC (class symbol)” value in [4] and in test [8] was “R” throughout. The MIC in test [5] was more than 256 µg/mL; in [6], 128 µg/mL (≈ 418 µM); in test [7] it was 128 µg/mL (≈ 418 µM); in test [10], 16 µg/mL (≈ 52.2 µM); in test [11], 32 µg/mL (≈ 104 µM); in [12] it was 64 µg/mL (≈ 209 µM). Moreover, the minimum inhibitory concentration (MIC) in [13] was determined as 64 µg/mL (≈ 209 µM); in test [14], 256 µg/mL (≈ 836 µM); in [15], 64 µg/mL (≈ 209 µM); in test [16], 32 µg/mL (≈ 104 µM); in test [17] it was 16 µg/mL (≈ 52.2 µM); in [18], 128 µg/mL (≈ 418 µM). For the same compound, the minimum inhibitory concentration (MIC) in [19], in test [20] and in [21] was more than 256 µg/mL throughout. Moreover, the “antifungal activity (in words)” value in [9] is on record as “little or no activity”.
